Source: US12545640B2, “Substituted 6,7-dihydro-5H-benzo[7]annulene compounds, processes for their preparation and therapeutic uses thereof” (SANOFI, priority 2019, dated 2026)

Target: T1, ERα (Homo sapiens, UniProt P03372)
T1 construct: host or cells: MCF7 cells
T1 sequence (P03372 1-595): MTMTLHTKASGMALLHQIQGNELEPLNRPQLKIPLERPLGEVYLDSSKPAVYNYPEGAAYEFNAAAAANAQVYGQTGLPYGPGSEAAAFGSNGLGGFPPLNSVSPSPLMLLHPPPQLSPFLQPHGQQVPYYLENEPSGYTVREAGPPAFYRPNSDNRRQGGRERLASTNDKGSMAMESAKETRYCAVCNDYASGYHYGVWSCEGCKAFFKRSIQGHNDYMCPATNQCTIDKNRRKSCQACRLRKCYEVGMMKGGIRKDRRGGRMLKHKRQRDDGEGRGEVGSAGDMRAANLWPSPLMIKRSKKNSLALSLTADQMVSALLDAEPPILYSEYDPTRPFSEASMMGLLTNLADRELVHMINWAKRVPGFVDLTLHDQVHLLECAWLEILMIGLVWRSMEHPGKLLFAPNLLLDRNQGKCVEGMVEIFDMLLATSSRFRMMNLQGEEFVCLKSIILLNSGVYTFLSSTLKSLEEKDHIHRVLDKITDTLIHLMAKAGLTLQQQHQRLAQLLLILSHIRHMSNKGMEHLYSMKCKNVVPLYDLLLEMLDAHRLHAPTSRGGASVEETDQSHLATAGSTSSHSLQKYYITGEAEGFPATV
Assay: Estrogen receptor degradation activity: breast cancer cell ERα in cell western assay (MCF7 cells)
Type: cell-based
Conditions: 4 hours, relative to fulvestrant 0.1 μM positive control; for % Degradation At 0.3 μM: final concentrations ranging from 0.3-0.0000018 μM
In short: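 In-cell western: ERα immunostained (rabbit anti-ER, Alexa 488 secondary) and DNA stained with Syto-64 after 4 h compound exposure of MCF7 cells grown in charcoal-stripped serum medium. Final concentrations span 3–0.000018 μM or 0.3–0.0000018 μM (1:5 series); fulvestrant 0.1 μM serves as reference.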

| SMILES | % Degradation At 0.3 μM | % Degradation At 3 μM (final concentrations ranging from 3-0.000018 μM) |
| --- | --- | --- |
| CCOc1ccc(C2=C(c3ccc(O[C@H]4CCN(CCCF)C4)cc3)c3ccc(C#N)cc3CCC2)c(F)n1 [Example 80, (S)-8-(6-ethoxy-2-fluoropyridin-3-yl)-9-(4-((1-(3-fluoropropyl)pyrrolidin-3-yl)oxy)phenyl)-6,7-dihydro-5H-benzo[7]annulene-3-carbonitrile 2,2,2-trifluoroacetate] | 90% | – |
| NC(=O)c1ccc(-c2ccc3c(c2)CCCC(c2ccc(Cl)cc2Cl)=C3c2ccc(O[C@H]3CCN(CCCF)C3)cc2)cc1 [Example 81, (S)-4-(8-(2,4-dichlorophenyl)-9-(4-((1-(3-fluoropropyl)pyrrolidin-3-yl)oxy)phenyl)-6,7-dihydro-5H-benzo[7]annulen-3-yl)benzamide] | 67% | – |
| COC(=O)c1ccccc1-c1ccc2c(c1)CCCC(c1ccc(Cl)cc1Cl)=C2c1ccc(O[C@H]2CCN(CCCF)C2)cc1 [Example 83, methyl (S)-2-(8-(2,4-dichlorophenyl)-9-(4-((1-(3-fluoropropyl)pyrrolidin-3-yl)oxy)phenyl)-6,7-dihydro-5H-benzo[7]annulen-3-yl)benzoate] | 63% | – |
| O=C(Nc1ccc2c(c1)CCCC(c1ccc(Cl)cc1Cl)=C2c1ccc(O[C@H]2CCN(CCCF)C2)cc1)C1(O)CC1.O=CO [Example 84, (S)—N-(8-(2,4-dichlorophenyl)-9-(4-((1-(3-fluoropropyl)pyrrolidin-3-yl)oxy)phenyl)-6,7-dihydro-5H-benzo[7]annulen-3-yl)-1-hydroxycyclopropane-1-carboxamide formate] | 71% | – |
| O=C1C[C@H](O)CN1c1ccc2c(c1)CCCC(c1ccc(Cl)cc1Cl)=C2c1ccc(O[C@H]2CCN(CCCF)C2)cc1 [Example 85, (S)-1-(8-(2,4-dichlorophenyl)-9-(4-(((S)-1-(3-fluoropropyl)pyrrolidin-3-yl)oxy)phenyl)-6,7-dihydro-5H-benzo[7]annulen-3-yl)-4-hydroxypyrrolidin-2-one] | 69% | – |
| O=C(O)c1ccccc1-c1ccc2c(c1)CCCC(c1ccc(Cl)cc1Cl)=C2c1ccc(O[C@H]2CCN(CCCF)C2)cc1 [Example 86, (S)-2-(8-(2,4-dichlorophenyl)-9-(4-((1-(3-fluoropropyl)pyrrolidin-3-yl)oxy)phenyl)-6,7-dihydro-5H-benzo[7]annulen-3-yl)benzoic acid] | 88% | – |
| O=C(Nc1ccc2c(c1)CCCC(c1ccc(Cl)cc1Cl)=C2c1ccc(O[C@H]2CCN(CCCF)C2)cc1)C1CC1(F)F (stereo partly drawn) [Example 87, N-(8-(2,4-dichlorophenyl)-9-(4-(((S)-1-(3-fluoropropyl)pyrrolidin-3-yl)oxy)phenyl)-6,7-dihydro-5H-benzo[7]annulen-3-yl)-2,2-difluorocyclopropane-1-carboxamide] | 73% | – |

Other lines, results leading:

| % Degradation At 0.3 μM | % Degradation At 3 μM (final concentrations ranging from 3-0.000018 μM) | SMILES |
| --- | --- | --- |
| 77% | – | CS(=O)(=O)Nc1ccc2c(c1)CCCC(c1cccc(F)c1Cl)=C2c1ccc(O[C@H]2CCN(CCCF)C2)cc1 [Example 90, (S)—N-(8-(2-chloro-3-fluorophenyl)-9-(4-((1-(3-fluoropropyl)pyrrolidin-3-yl)oxy)phenyl)-6,7-dihydro-5H-benzo[7]annulen-3-yl)methanesulfonamide] |
| 90% | – | CC1(C)OB(c2ccc3c(c2)CCCC(c2ccccc2)=C3c2ccc(O[C@H]3CCN(CCCF)C3)cc2)OC1(C)C [Example 91, (S)-1-(3-fluoropropyl)-3-(4-(8-phenyl-3-(4,4,5,5-tetramethyl-1,3,2-dioxaborolan-2-yl)-6,7-dihydro-5H-benzo[7]annulen-9-yl)phenoxy)pyrrolidine] |
| 85% | – | OB(O)c1ccc2c(c1)CCCC(c1ccccc1)=C2c1ccc(O[C@H]2CCN(CCCF)C2)cc1 [Example 92, (S)-(9-(4-((1-(3-fluoropropyl)pyrrolidin-3-yl)oxy)phenyl)-8-phenyl-6,7-dihydro-5H-benzo[7]annulen-3-yl)boronic acid] |
| – | 84% | O=C(O)Cc1ccc2c(c1)CCCC(c1ccc(Cl)cc1Cl)=C2c1ccc(O[C@H]2CCN(CCCF)C2)cc1 [Example 93, (S)-2-(8-(2,4-dichlorophenyl)-9-(4-((1-(3-fluoropropyl)pyrrolidin-3-yl)oxy)phenyl)-6,7-dihydro-5H-benzo[7]annulen-3-yl)acetic acid] |
| 64% | – | CC(C)(O)c1cccc(-c2ccc3c(c2)CCCC(c2ccc(Cl)cc2Cl)=C3c2ccc(O[C@H]3CCN(CCCF)C3)cc2)c1 [Example 94, (S)-2-(3-(8-(2,4-dichlorophenyl)-9-(4-((1-(3-fluoropropyl)pyrrolidin-3-yl)oxy)phenyl)-6,7-dihydro-5H-benzo[7]annulen-3-yl)phenyl)propan-2-ol] |
| 76% | – | O=[N+]([O-])c1cccc(-c2ccc3c(c2)CCCC(c2cccc(F)c2Cl)=C3c2ccc(O[C@H]3CCN(CCCF)C3)cc2)c1 [Example 96, (S)-3-(4-(8-(2-chloro-3-fluorophenyl)-3-(3-nitrophenyl)-6,7-dihydro-5H-benzo[7]annulen-9-yl)phenoxy)-1-(3-fluoropropyl)pyrrolidine] |
| 59% | – | CC(C)(O)c1ccc(-c2ccc3c(c2)CCCC(c2cccc(F)c2Cl)=C3c2ccc(O[C@H]3CCN(CCCF)C3)cc2)cc1 [Example 98, (S)-2-(4-(8-(2-chloro-3-fluorophenyl)-9-(4-((1-(3-fluoropropyl)pyrrolidin-3-yl)oxy)phenyl)-6,7-dihydro-5H-benzo[7]annulen-3-yl)phenyl)propan-2-ol] |
